Test results as given in ChEMBL document CHEMBL4673338, “ROCK inhibitors 4: Structure-activity relationship studies of 7-azaindole-based rho kinase (ROCK) inhibitors” (Bioorg Med Chem Lett, 2021).

How the values were obtained:
Cytochrome P450 3A4 = Cytochrome P450 3A4 (Homo sapiens, UniProt P08684); test: Inhibition of CYP3A4 (unknown origin); assay type: ADME
THP-1 = test: Antimigratory activity against human THP-1 cells; assay type: functional, cell-based
Homo sapiens = organism: Homo sapiens; test: Selectivity index, ratio of Ki for PKA (unknown origin) to Ki for ROCK1 (unknown origin)
[1] = molecular target: Rho-associated protein kinase 1 (Homo sapiens, UniProt Q13464); test: Inhibition of ROCK1 (unknown origin)
Sequence of Rho-associated protein kinase 1 (Q13464 whole entry): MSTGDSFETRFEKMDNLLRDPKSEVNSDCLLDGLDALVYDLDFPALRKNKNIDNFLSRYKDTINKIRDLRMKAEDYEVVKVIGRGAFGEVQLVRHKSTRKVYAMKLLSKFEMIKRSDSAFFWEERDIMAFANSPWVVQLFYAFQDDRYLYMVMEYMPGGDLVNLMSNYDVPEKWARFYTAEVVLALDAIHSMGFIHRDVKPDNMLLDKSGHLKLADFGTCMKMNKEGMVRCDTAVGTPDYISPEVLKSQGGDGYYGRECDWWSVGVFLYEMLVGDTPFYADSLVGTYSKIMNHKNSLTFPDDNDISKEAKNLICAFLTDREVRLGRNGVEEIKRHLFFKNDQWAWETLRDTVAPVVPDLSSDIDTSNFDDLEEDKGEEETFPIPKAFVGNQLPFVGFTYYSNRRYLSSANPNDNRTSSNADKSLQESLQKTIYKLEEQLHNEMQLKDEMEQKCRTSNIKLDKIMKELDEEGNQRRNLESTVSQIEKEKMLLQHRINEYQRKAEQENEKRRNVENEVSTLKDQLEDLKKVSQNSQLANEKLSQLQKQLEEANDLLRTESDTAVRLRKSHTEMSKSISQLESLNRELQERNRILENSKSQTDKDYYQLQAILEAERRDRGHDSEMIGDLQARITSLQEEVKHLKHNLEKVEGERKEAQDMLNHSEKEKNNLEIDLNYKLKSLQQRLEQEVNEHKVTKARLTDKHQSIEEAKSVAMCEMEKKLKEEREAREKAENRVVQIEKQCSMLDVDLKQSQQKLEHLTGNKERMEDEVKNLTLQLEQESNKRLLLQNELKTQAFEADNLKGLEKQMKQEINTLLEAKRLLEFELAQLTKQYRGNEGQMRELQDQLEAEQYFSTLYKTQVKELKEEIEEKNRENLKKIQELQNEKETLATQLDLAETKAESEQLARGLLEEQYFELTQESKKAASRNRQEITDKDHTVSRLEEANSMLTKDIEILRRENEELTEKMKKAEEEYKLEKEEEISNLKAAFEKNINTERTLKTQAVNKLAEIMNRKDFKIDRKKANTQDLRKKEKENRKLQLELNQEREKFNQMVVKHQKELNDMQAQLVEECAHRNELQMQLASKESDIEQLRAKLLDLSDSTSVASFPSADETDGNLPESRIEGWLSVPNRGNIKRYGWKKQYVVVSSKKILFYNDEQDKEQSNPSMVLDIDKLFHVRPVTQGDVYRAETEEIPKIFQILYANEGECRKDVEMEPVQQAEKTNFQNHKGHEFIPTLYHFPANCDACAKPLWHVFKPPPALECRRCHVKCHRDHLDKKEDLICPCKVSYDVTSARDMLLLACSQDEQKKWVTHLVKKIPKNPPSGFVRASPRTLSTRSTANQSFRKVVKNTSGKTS

[2] = Oral bioavailability in rat at 3 mg/kg; assay type: ADME, organism-based; conditions: in vivo
[3] = Cmax in rat at 3 mg/kg, po; assay type: ADME, organism-based; parameters: route oral, dose 3 mg/kg; conditions: in vivo
[4] = AUC(0 to infinity) in rat at 3 mg/kg, po; assay type: ADME, organism-based; parameters: route oral, time infinity, dose 3 mg/kg; conditions: in vivo
[5] = AUC(0 to infinity) in rat at 1 mg/kg, iv; assay type: ADME, organism-based; parameters: route intravenous, time infinity, dose 1 mg/kg; conditions: in vivo
[6] = Volume of distribution at steady state in rat at 1 mg/kg, iv; assay type: ADME, organism-based; conditions: in vivo, read-out: Vdss
[7] = Half life in rat at 1 mg/kg, iv; assay type: ADME, organism-based; conditions: in vivo
[8] = Clearance in rat at 1 mg/kg, iv; assay type: ADME, organism-based; conditions: in vivo
[9] = Intrinsic clearance in rat Hepatocyte assessed per million cells; assay type: ADME, tissue-based; conditions: hepatocytes, read-out: CLH
[10] = Intrinsic clearance in human Hepatocyte assessed per million cells; assay type: ADME, tissue-based; conditions: hepatocytes, read-out: CLH
[11] = molecular target: Voltage-gated inwardly rectifying potassium channel KCNH2 (Homo sapiens, UniProt Q12809); test: Inhibition of human ERG
Sequence of Voltage-gated inwardly rectifying potassium channel KCNH2 (Q12809 whole entry): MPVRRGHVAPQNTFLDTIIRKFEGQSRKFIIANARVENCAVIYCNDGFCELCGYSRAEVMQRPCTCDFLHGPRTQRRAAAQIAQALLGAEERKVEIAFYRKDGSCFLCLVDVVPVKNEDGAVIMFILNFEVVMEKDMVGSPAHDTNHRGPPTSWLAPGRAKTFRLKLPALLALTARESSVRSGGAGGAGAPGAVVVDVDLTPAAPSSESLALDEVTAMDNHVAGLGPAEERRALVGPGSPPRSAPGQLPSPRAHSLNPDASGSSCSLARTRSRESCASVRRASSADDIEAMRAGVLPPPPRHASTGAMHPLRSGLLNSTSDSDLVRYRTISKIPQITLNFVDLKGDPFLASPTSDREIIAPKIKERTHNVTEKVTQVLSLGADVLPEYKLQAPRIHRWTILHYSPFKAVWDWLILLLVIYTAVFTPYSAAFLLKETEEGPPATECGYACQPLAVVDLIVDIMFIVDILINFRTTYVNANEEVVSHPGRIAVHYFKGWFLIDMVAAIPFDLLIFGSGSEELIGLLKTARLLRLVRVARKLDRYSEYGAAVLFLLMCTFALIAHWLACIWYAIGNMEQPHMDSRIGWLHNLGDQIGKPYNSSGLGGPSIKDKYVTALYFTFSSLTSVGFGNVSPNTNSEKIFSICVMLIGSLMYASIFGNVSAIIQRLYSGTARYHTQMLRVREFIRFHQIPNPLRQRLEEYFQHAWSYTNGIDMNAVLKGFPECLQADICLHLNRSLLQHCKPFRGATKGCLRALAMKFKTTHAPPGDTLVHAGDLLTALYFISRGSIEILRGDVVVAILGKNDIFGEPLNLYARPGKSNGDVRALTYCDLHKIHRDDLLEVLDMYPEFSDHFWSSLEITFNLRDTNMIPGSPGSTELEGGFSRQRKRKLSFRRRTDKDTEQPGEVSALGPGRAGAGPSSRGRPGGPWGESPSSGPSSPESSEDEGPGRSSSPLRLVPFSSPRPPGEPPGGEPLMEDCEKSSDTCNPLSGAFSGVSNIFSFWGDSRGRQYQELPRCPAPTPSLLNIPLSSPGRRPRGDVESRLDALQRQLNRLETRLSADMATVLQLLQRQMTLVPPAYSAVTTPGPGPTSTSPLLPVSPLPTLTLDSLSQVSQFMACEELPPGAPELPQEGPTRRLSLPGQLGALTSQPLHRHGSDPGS

Sequence of Cytochrome P450 3A4 (P08684 whole entry): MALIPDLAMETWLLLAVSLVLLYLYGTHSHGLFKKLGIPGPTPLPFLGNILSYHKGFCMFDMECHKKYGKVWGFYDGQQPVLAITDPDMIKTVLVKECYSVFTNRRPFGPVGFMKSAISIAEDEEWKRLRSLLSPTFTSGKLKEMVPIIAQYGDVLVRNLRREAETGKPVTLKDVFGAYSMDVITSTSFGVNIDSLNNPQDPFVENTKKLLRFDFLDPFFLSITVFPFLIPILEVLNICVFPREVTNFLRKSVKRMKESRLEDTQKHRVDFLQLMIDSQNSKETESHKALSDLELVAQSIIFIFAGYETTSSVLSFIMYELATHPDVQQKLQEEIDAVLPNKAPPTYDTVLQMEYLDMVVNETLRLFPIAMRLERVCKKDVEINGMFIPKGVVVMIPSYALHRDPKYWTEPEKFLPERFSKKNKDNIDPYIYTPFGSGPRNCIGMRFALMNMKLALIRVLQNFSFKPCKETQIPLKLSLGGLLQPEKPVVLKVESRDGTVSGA

CS(=O)(=O)Nc1cccc(CC(=O)Nc2nnc(-c3c[nH]c4ncccc34)s2)c1
IC50 (Cytochrome P450 3A4): 100 µM
IC50 (THP-1): 1.52 µM
Ratio Ki (Homo sapiens): 34
Ki [1]: 0.007 µM

CN1CCN(CCCOc2cccc(CC(=O)Nc3nc(-c4c[nH]c5ncc(F)cc45)cs3)c2)CC1
IC50 (THP-1): 0.26 µM
Ratio Ki (Homo sapiens): 240
Ki [1]: 0.005 µM

CN1CCN(CCOc2cccc(CC(=O)Nc3nc(-c4c[nH]c5ncccc45)cs3)c2)CC1
bioavailability [2]: 46%
Cmax [3]: 0.06 µg/mL
AUC(0-inf) [4]: 0.6 µg·h/mL
AUC(0-inf) [5]: 0.24 µg·h/mL
Vd [6]: 14 L/kg
half-life [7]: 3.2 h
clearance [8]: 4.26 L/h/kg
hepatocyte CLint [9]: 32 µL/min/1e6 cells
hepatocyte CLint [10]: 3.3 µL/min/1e6 cells
IC50 (THP-1): 0.02 µM

CS(=O)(=O)Nc1cccc(CC(=O)Nc2nc(-c3c[nH]c4nccc(Cl)c34)cs2)c1
IC50 (Cytochrome P450 3A4): 8 µM
Ratio Ki (Homo sapiens): 2
Ki [1]: 0.092 µM

CS(=O)(=O)Nc1cccc(CC(=O)Nc2ccc(-c3c[nH]c4ncccc34)s2)c1
IC50 (Cytochrome P450 3A4): 6 µM
IC50 (THP-1): 0.34 µM
Ratio Ki (Homo sapiens): 39
Ki [1]: 0.008 µM

CS(=O)(=O)Nc1cccc(CC(=O)Nc2nccc(-c3c[nH]c4ncccc34)n2)c1
IC50 (Cytochrome P450 3A4): 48 µM
IC50 (THP-1): 8 µM
Ratio Ki (Homo sapiens): 23
Ki [1]: 0.048 µM

O=C(Cc1cccc(OCCCC2CCNCC2)c1)Nc1nc(-c2c[nH]c3nccc(F)c23)cs1
AUC(0-inf) [5]: 0.25 µg·h/mL
Vd [6]: 19 L/kg
half-life [7]: 5.5 h
clearance [8]: 4.08 L/h/kg
IC50 [11]: > 30 µM
hepatocyte CLint [10]: 5.7 µL/min/1e6 cells
IC50 (Cytochrome P450 3A4): 100 µM
IC50 (THP-1): 0.05 µM
Ratio Ki (Homo sapiens): 143
Ki [1]: 0.003 µM

CS(=O)(=O)Nc1cccc(CC(=O)Nc2cc(-c3c[nH]c4ncccc34)cs2)c1
IC50 (Cytochrome P450 3A4): 5 µM
Ratio Ki (Homo sapiens): 1
Ki [1]: 0.1 µM

O=C(Cc1cccc(OCCCC2CCNCC2)c1)Nc1nc(-c2c[nH]c3ncc(F)cc23)cs1
AUC(0-inf) [5]: 0.25 µg·h/mL
Vd [6]: 8.7 L/kg
half-life [7]: 3.8 h
clearance [8]: 3.96 L/h/kg
IC50 [11]: > 30 µM
hepatocyte CLint [9]: 20.5 µL/min/1e6 cells
hepatocyte CLint [10]: 6.3 µL/min/1e6 cells
IC50 (THP-1): 0.14 µM
Ratio Ki (Homo sapiens): > 480
Ki [1]: 0.001 µM

CS(=O)(=O)Nc1cccc(CC(=O)Nc2nc(-c3c[nH]c4ncc(O)cc34)cs2)c1
IC50 (Cytochrome P450 3A4): 5 µM
IC50 (THP-1): 1.3 µM
Ratio Ki (Homo sapiens): 107
Ki [1]: 0.007 µM

CS(=O)(=O)Nc1cccc(CC(=O)Nc2nc(-c3c[nH]c4ncc(Br)cc34)cs2)c1
IC50 (Cytochrome P450 3A4): 35 µM
IC50 (THP-1): 10 µM
Ratio Ki (Homo sapiens): 32
Ki [1]: 0.022 µM

CS(=O)(=O)Nc1cccc(CC(=O)Nc2nc(-c3c[nH]c4ncc(F)cc34)cs2)c1
IC50 [11]: > 30 µM
hepatocyte CLint [9]: 11.7 µL/min/1e6 cells
hepatocyte CLint [10]: 4.3 µL/min/1e6 cells
IC50 (Cytochrome P450 3A4): 6 µM
IC50 (THP-1): 0.07 µM
Ratio Ki (Homo sapiens): 53
Ki [1]: 0.003 µM

CS(=O)(=O)Nc1cccc(CC(=O)Nc2nc(-c3c[nH]c4ncc(Cl)cc34)cs2)c1
IC50 (Cytochrome P450 3A4): 8 µM
IC50 (THP-1): 0.31 µM
Ratio Ki (Homo sapiens): 46
Ki [1]: 0.011 µM

CN1CCN(CCCOc2cccc(CC(=O)Nc3nc(-c4c[nH]c5nccc(F)c45)cs3)c2)CC1
IC50 (THP-1): 0.4 µM
Ratio Ki (Homo sapiens): 180
Ki [1]: 0.01 µM

Cc1sc(NC(=O)Cc2cccc(NS(C)(=O)=O)c2)nc1-c1c[nH]c2ncccc12
IC50 (Cytochrome P450 3A4): 5 µM
Ratio Ki (Homo sapiens): 31
Ki [1]: 0.052 µM

CS(=O)(=O)Nc1cccc(CC(=O)Nc2nc(-c3c[nH]c4nccc(F)c34)cs2)c1
IC50 (Cytochrome P450 3A4): 36 µM
IC50 (THP-1): 0.08 µM
Ratio Ki (Homo sapiens): 31
Ki [1]: 0.004 µM

CN1CCN(CCCOc2cccc(CC(=O)Nc3nc(-c4c[nH]c5ncccc45)cs3)c2)CC1
AUC(0-inf) [5]: 0.15 µg·h/mL
Vd [6]: 10 L/kg
half-life [7]: 0.71 h
clearance [8]: 6.84 L/h/kg
hepatocyte CLint [9]: 26.8 µL/min/1e6 cells
hepatocyte CLint [10]: 7.5 µL/min/1e6 cells

CS(=O)(=O)Nc1cccc(CC(=O)Nc2csc(-c3c[nH]c4ncccc34)n2)c1
IC50 (Cytochrome P450 3A4): 12 µM
IC50 (THP-1): 0.37 µM
Ratio Ki (Homo sapiens): 31
Ki [1]: 0.01 µM

O=C(Cc1cccc(OCCCC2CCNCC2)c1)Nc1nc(-c2c[nH]c3ncccc23)cs1
AUC(0-inf) [5]: 0.13 µg·h/mL
Vd [6]: 24 L/kg
half-life [7]: 5.4 h
clearance [8]: 7.68 L/h/kg
IC50 (THP-1): 0.02 µM

CS(=O)(=O)Nc1cccc(CC(=O)Nc2nc(-c3c[nH]c4ncccc34)cs2)c1
F ([2]; 3 mg/kg): 38%
Cmax [3]: 0.9 µg/mL
AUC [4]: 9.2 µg·h/mL
AUC [5]: 2.4 µg·h/mL
Vd [6]: 0.6 L/kg
half-life [7]: 2 h
clearance [8]: 0.42 L/h/kg
hepatocyte CLint [9]: 6.7 µL/min/1e6 cells
hepatocyte CLint [10]: 4 µL/min/1e6 cells
IC50 (THP-1): 0.02 µM

CN1CCN(CCOc2cccc(CC(=O)Nc3nc(-c4c[nH]c5ncc(F)cc45)cs3)c2)CC1
IC50 (Cytochrome P450 3A4): 27 µM
IC50 (THP-1): 0.4 µM
Ratio Ki (Homo sapiens): 320
Ki [1]: 0.003 µM

CS(=O)(=O)Nc1cccc(CC(=O)Nc2cc(-c3c[nH]c4ncccc34)ncn2)c1
IC50 (Cytochrome P450 3A4): 100 µM
IC50 (THP-1): 0.82 µM
Ratio Ki (Homo sapiens): 20
Ki [1]: 0.007 µM
